Assays:
platelets (GP IIb/IIIa) = assay: Platelet aggregation in platelet-rich plasma (turbidimetric); assay type: cell-based; conditions: 1:1 mixture of E- and Z-stereoisomers, read-out: IC50 for inhibition of platelet aggregation in PRP
Description: Platelet aggregation was measured turbidimetrically on a standard platelet aggregometer equipped with a recorder. Samples of platelet-rich plasma (PRP) were standardized with respect to the cell density (3×10^8per ml); maximal light transmission (LT) was calibrated with platelet-poorplasma (PPP). Aliquots of PRP (0.25 ml in glass cuvettes) were stirred in the cell of the device (1000 rpm, 37° C.) with Ajoene (0-100 micromoles per liter final concentration) for 1 min., followed by addition of the aggregation stimuli. (Unless specified otherwise, all the experiments described in this Application were performed with Ajoene that represented a 1:1 mixture of E- and Z-stereoisomers.) LT increments were traced for 5 min. Maximal rate of aggregation was derived from the slope of each curve; IC50 for Ajoene was determined by a method such as that described in Vrzheshch, et al., Cell Response Kinetics: the Phenomenon of Supercooperativity in Aggregation of Human Platelets, 66 Thrombos. Res. 537, 1992.
The requirement of integrins for the formation of cell-to-cell contacts in each of these systems has long been established. It is known that in platelets the relevant integrin is GP IIb/IIIa (β3). […]

51Cr-labeled monocytes = assay: Monocyte recruitment to inflamed skin; assay type: in vivo, rat; conditions: 50 mg/kg i.v.; for Accumulation of 51Cr-labeled Monocytes (mean ± SEM): 2 h
Description: Chemotactic factors (e.g., C5adesArg) and cytokines, such as tumor necrosis factor α (TNF) or interferon gamma (IFN), induce rapid cutaneous inflammatory reactions, when injected intradermally. These inflammatory reactions are characterized by integrin-mediated migration of ^51 Cr-labeled monocytes and ^111 In-labeled neutrophils. The mechanisms of leukocyte recruitment to the inflammatory loci differ, however, in that chemotactic factors act primarily on leukocytes (by upregulating integrins), whereas TNF and IFN activate endothelial cells (which results, inter alia, in rapid expression of integrin ligands, such as ICAM-1 and VCAM-1).
Agents used for the induction of the inflammation included rat IFN, recombinant mouse TNF (Genentech, South San Francisco, Calif.), and Zymozan-activated serum (ZAS). ZAS, a source of C5adesArg, was generated by activating complement in normal rat serum with 5 mg/ml of Zymozan A (Sigma Chemical Company, St. Louis, Mo.) at 37° C. for 60 min, after which the zymozan was removed.
Rat monocytes and neutrophils were isolated and labeled as described in Example 6, supra. Male Lewis rats were administered intravenously with 50 mg/kg Ajoene (treatment group) or its vehicle (control), followed within 2-3 min by infusion of the labeled cells. Immediately afterwards, the skin on the back of all animals was shaved and the inflammatory stimuli and the diluent control were injected intradermally at several sites of the skin of each animal. Two hours later, 1 ml of blood was taken from each rat, and the animals were sacrificed. The dorsal skin, including the area of dermal inflammatory reactions, was removed and frozen, and the injected skin sites were punched out with a 12-mm punch and counted in a gamma spectrometer (model 1280, LXB Instruments).

[1] = system: VLA-4 (Jurkat cells, VCAM-1); assay: VLA-4-dependent adhesion of Jurkat cells to VCAM-1; assay type: cell-based; conditions: Homo sapiens, 1 h, 37° C.
Description: (§1) Microtiter plates were coated with ligands of the integrin VLA-4, i.e., recombinant human VCAM-1 (500 nanograms per well) or the fragment of connective segment of human fibronectin (CS-1), covalently attached to ovalbumin (5 micrograms per well) by overnight incubation (4° C.) with solutions of the proteins in phosphate-buffered saline (PBS). The plates were blocked with 1% bovine serum albumin (BSA) in Hanks' buffered salt solution (HBSS-BSA). The cells (Jurkat or human melanoma MV3) were labeled with the fluorescent dye 5-chloromethylfluorescein diacetate (CMFDA) and introduced into the wells of the plates (10^5 cells per well) together with varying amounts of Ajoene. After incubation at 37° C. for 1 h, the unbound cells were removed by aspiration and the wells washed four times with HBSS-BSA. Thereafter, the bound cells were lysed with 0.5% Triton X-100, and the fluorescence was measured using a Cytofluor 2300 plate reader. The number of adherent cells was calculated from a standard dilution curve of Triton X-100 lysates of the CMFDA-labeled cells.

HIV-1 strain IIIB = assay: Protection of MT-4 cells against infection with free HIV (PCR for proviral DNA); assay type: cell-based; conditions: Human immunodeficiency virus 1, IIIB, MT4, 16 hours
Description: The effect of Ajoene in protecting against HIV infection was evaluated using polymerase chain reaction (PCR) analysis which recognized amplified DNA sequences of HIV gag gene. MT-4 cells were used as target cells and strain IIIB of HIV-1 was used as inoculate. Serial dilutions of Ajoene or an equivalent volume of its vehicle were added to MT-4 cells, followed by addition of a sufficient amount of free virus (≥10^3 particles per cell). The protective effect of Ajoene was monitored by examining for the absence or presence of proviral HIV DNA in target cells 16 hours after the inoculation.

[2] = system: VLA-4 (MV3 cells, VCAM-1); assay: VLA-4-dependent adhesion of human melanoma MV3 cells to VCAM-1; assay type: cell-based; conditions: MV-3, 1 h, 37° C.
Description: as §1

[3] = system: MOLT-4 cells and syncytiotrophoblasts; assay type: cell-based, human
Description: MOLT-4 clone 8 cells were labeled with calcein-AM, pretreated with different concentrations of Ajoene (0-200 micromoles per liter) and incubated with cultured term syncytiotrophoblast cells at 37° C. for one hour in the presence of Ajoene. Adhesion was measured directly as fluorescence units after background correction. Controls included measuring adhesion in the presence of the appropriate carrier solvent.
In order to assess the ability of Ajoene to inhibit lymphocyte-mediated HIV infection of syncytiotrophoblasts, HIV-1LBi -infected MOLT-4 cells were added to adherent cultures of uninfected syncytiotrophoblasts in the presence and absence of Ajoene. Various additional control conditions were also established. First, some wells received filtered (0.45 micrometer) supernatant of cell-free HIV from infected cell cultures. Yet other negative controls included syncytiotrophoblasts cultured alone and syncytiotrophoblasts cultured with uninfected MOLT-4 cells. After 24 hours, the cocultures were washed to removed unbound lymphocytes, fixed, permeabilized, stained for viral core antigens (p24 and p55), and viewed under a fluorescence microscope.

With `C=CCSSC=CC[S+]([O-])CC=C` (centres unmarked) [Ajoene, 4,5,9-trithiadodeca-1,6,11-triene-9-oxide] the IC50 (platelets (GP IIb/IIIa)) was about 50 µM, the “Accumulation of 51Cr-labeled Monocytes (mean ± SEM)” value (“Accumulation … (mean ± SEM)” for short) (51Cr-labeled monocytes; 10 ng TNF, P < 0.002) was 1,274 cpm per inflammatory locus and the “inhibition of monocyte migration to loci of acute cutaneous inflammation” value (51Cr-labeled monocytes) was 50-75%. The “Accumulation … (mean ± SEM)” value (51Cr-labeled monocytes; 25% ZAS, P < 0.020) was 944 cpm per inflammatory locus, the “Accumulation … (mean ± SEM)” value (51Cr-labeled monocytes; 50% ZAS, P < 0.002) was 1,268 cpm per inflammatory locus and the “Accumulation … (mean ± SEM)” value (51Cr-labeled monocytes; 300 U IFN, P < 0.001) was 468 cpm per inflammatory locus. The “Accumulation … (mean ± SEM)” value (51Cr-labeled monocytes; diluent control stimulus, N.S.) was 15 cpm per inflammatory locus, the IC50 [1] was 250 µM and the IC50 (HIV-1 strain IIIB) was 5 µM. For the same compound, the IC100 (HIV-1 strain IIIB; read-out: minimal dose completely preventing HIV infection) was 17 µM, the IC50 [2] was 125 µM and the “toxic effects to the cells” value ([3]; HIV infection assay (lymphocyte-mediated), 200 micromoles per liter) was “without toxic effects to the cells”. The “toxic effects on cells” value ([3]; adhesion assay, up to 200 micromoles per liter) was “Without any toxic effects on cells” and the “toxic effects in cell-free HIV infection” value ([3]; cell-free HIV, 200 micromoles per liter and lower concentrations tested) was “without toxic effects”.
